pEC50: −log10 of the molar value. Read-outs that look alike come from different tables or passages of the source.
Columns and labels:
[1] = test system: HCV genotype 1b Con-1 subgenomic replicon; experiment: Anti-HCV luciferase assay, genotype 1b (Con1) subgenomic replicon in Huh5-2 cells; type: cell-based, Hepatitis C virus; conditions: for HCV Replicon 1b SI50: CC50/EC50, Huh5-2 cells; for pEC50: mean of three experiments
Experimental: (§1) All synthesized compounds were tested against HCV genotype 1b Con-1 subgenomic replicon in the Huh-5-2 stable cell line. Specifically, their activity against viral replication was estimated by measuring firefly luciferase, which is co-expressed by the bicistronic replicon, and their half-maximal effective concentrations (EC50) were determined. In parallel, the half-maximal cytotoxic concentrations (CC50) of the compounds were estimated, and their selective indexes (SI50: CC50/ EC50) were calculated. All novel synthesized compounds were active against HCV 1b with EC50 < 1 µM except for compound 4b (Table 3).
Huh5-2 [65] and Huh7-JFH1 [66] stable cell lines harbor the subgenomic HCV reporter replicon I389luc-ubi-neo/NS3-3′/Con1/5.1 (genotype 1b; strain Con1) and I389luc-ubi-neo/NS3-3′_dg_JFH1 (genotype 2a, JFH1 strain), respectively (kindly provided by R. Bartenschlager, Heidelberg University, Heidelberg, Germany). Huh7.5-3a and Huh7.5-4a stable cell lines harbor the subgenomic HCV reporter replicon S52-SG (Feo) (AII) (genotype 3a; S52 strain) and ED43-SG (Feo) (VYG) (genotype 4a; ED43 strain), respectively (viral constructs kindly provided by C.M. Rice, Rockefeller University, New York, NY, USA). These replicons carry as a first cistron firefly luciferase (F-Luc) and neomycin phosphotransferase genes under the translational control of the HCV internal ribosome entry site (IRES), followed by HCV NS3 to NS5B proteins under the control of the EMCV IRES.
The anti-HCV assay in replicon cells was performed by seeding 1 × 10^4 cells per well in a 96-well plate. After 24 h of incubation at 37 °C (5% CO2) and medium removal, serial dilutions of the test compounds in complete DMEM were added. Cells were lysed after 72 h, and F-Luc activity was measured. The anti-HCV assay for the full-length viral construct H77S.3/GLuc2A was performed after electroporation of Huh7-Lunet cells with viral RNA. Cells were seeded in 96-well plates, the medium was removed 24 h after electroporation, and serial dilutions of the compounds in complete DMEM were added. At 72 h post-treatment, cell supernatants were collected, and G-Luc activity was measured. In addition, the cells were lysed for total protein quantification.
Relative luminescence units (RLU) were expressed as a percentage of the respective units derived from DMSO-treated cells (control). The half-maximal effective concentration (EC50), defined as the concentration of compound that reduces luciferase signal by 50%, was calculated by dose-response curve analysis using Prism 5.0 software (GraphPad Software Inc., San Diego, CA, USA).
The F-Luc activity was measured using the Luciferase Assay System (Promega, Madison, WI, USA), as recommended by the manufacturer. The G-Luc activity was measured using 12 μM coelenterazine (Promega) in assay buffer (50 mM potassium phosphate, pH 7.4, 500 mM NaCl, 1 mM EDTA). Measurements were carried out using a GloMax 20/20 single tube luminometer (Promega) for 10 s. The F-Luc activity was normalized to the total protein amount determined using the Bradford assay reagent (Pierce, Waltham, MA, USA).

[2] = Cytotoxicity assay (intracellular ATP levels) in Huh5-2 replicon cells; type: cell-based; conditions: human, Huh5-2 cells, read-out: HCV Replicon 1b CC50
Experimental: as §1
Intracellular ATP levels were measured to determine the cytotoxicity of the compounds in the treated cells. In 96-well plates, 10^4 cells per well were seeded, incubated with serial dilutions of the compounds or DMSO as a control for 72 h at 37 °C (5% CO2) and lysed for ATP measurement. ATP levels were measured using the ViaLight HS BioAssay kit (Lonza, Basel, Switzerland) in a GloMax 20/20 single-tube luminometer (Promega) for 1 s, according to the manufacturer’s protocol. Values were normalized to total protein amounts and used to determine the compound concentration causing 50% cell death (CC50). Nonlinear regression analysis was performed using Prism 5.0 software (GraphPad Software Inc., San Diego, CA, USA).

[3] = Hepatitis C virus, Huh-5-2, 72 h, read-out: HCV Replicon 1b EC50, Huh5-2 cells, Con1 strain, F-Luc, 72 h
[4] = Huh5-2 cells, Con1 strain, F-Luc, 72 h, read-out: HCV Replicon 1b EC50
[5] = Hepatitis C virus, Huh-5-2, 72 h, Huh5-2 cells, Con1 strain, F-Luc, 72 h, read-out: HCV Replicon 1b EC50

Row | SMILES | HCV Replicon 1b SI50 [1] | pEC50 [1, 3] | pEC50 [1, 4] | CC50 at 72 h [2] [nM] | melting point [°C] | pEC50 [1, 5]
1 | COC(=O)N[C@H](CC(C)C)C(=O)N1CCC[C@H]1c1ncc(-c2cccc(C#CC#Cc3cccc(-c4cnc([C@@H]5CCCN5C(=O)[C@@H](CC(C)C)NC(=O)OC)[nH]4)c3)c2)[nH]1 [Compound 6a, Dimethyl ((2R,2′R)-((2S,2′S)-((buta-1,3-diyne-1,4-diylbis(3,1-phenylene))bis(1H-imidazole-5,2-diyl))bis(pyrrolidine-2,1-diyl))bis(4-methyl-1-oxopentane-1,2-diyl))dicarbamate] | >1034.23 | 7.02 | 7.01 | > 100000 | 111 to 113 | –
2 | COC(=O)N[C@H](C(=O)N1CCC[C@H]1c1ncc(-c2cccc(C#CC#Cc3cccc(-c4cnc([C@@H]5CCCN5C(=O)[C@@H](NC(=O)OC)c5ccccc5)[nH]4)c3)c2)[nH]1)c1ccccc1 [Compound 9a, Dimethyl ((1S,1′S)-((2S,2′S)-((buta-1,3-diyne-1,4-diylbis(3,1-phenylene))bis(1H-imidazole-5,2-diyl))bis(pyrrolidine-2,1-diyl))bis(2-oxo-1-phenylethane-2,1-diyl))dicarbamate] | >1611.86 | 7.21 | 7.21 | > 100000 | 125 to 127 | –
3 | CCOC(=O)N[C@H](CC(C)C)C(=O)N1CCC[C@H]1c1ncc(-c2ccc(C#CC#Cc3ccc(-c4cnc([C@@H]5CCCN5C(=O)[C@@H](CC(C)C)NC(=O)OCC)[nH]4)cc3)cc2)[nH]1 [Compound 8b, Diethyl ((2R,2′R)-((2S,2′S)-((buta-1,3-diyne-1,4-diylbis(4,1-phenylene))bis(1H-imidazole-5,2-diyl))bis(pyrrolidine-2,1-diyl))bis(4-methyl-1-oxopentane-1,2-diyl))dicarbamate] | >1289.98 | – | – | > 100000 | 129 to 132 | 7.11
4 | CCOC(=O)N[C@@H](CC(C)C)C(=O)N1CCC[C@H]1c1ncc(-c2ccc(C#CC#Cc3ccc(-c4cnc([C@@H]5CCCN5C(=O)[C@H](CC(C)C)NC(=O)OCC)[nH]4)cc3)cc2)[nH]1 [Compound 7b, Diethyl ((2S,2′S)-((2S,2′S)-((buta-1,3-diyne-1,4-diylbis(4,1-phenylene))bis(1H-imidazole-5,2-diyl))bis(pyrrolidine-2,1-diyl))bis(4-methyl-1-oxopentane-1,2-diyl))dicarbamate] | >1699.23 | – | – | > 100000 | 118 to 120 | 7.23
5 | COC(=O)N[C@@H](C(=O)N1CCC[C@H]1c1ncc(-c2ccc(C#CC#Cc3ccc(-c4cnc([C@@H]5CCCN5C(=O)[C@H](NC(=O)OC)C(C)C)[nH]4)cc3)cc2)[nH]1)C(C)C [Compound 2b, Dimethyl ((2R,2′R)-((2S,2′S)-((buta-1,3-diyne-1,4-diylbis(4,1-phenylene))bis(1H-imidazole-5,2-diyl))bis(pyrrolidine-2,1-diyl))bis(3-methyl-1-oxobutane-1,2-diyl))dicarbamate] | >248.20 | – | – | > 100000 | – | 6.39
6 | CCOC(=O)N[C@H](C(=O)N1CCC[C@H]1c1ncc(-c2ccc(C#CC#Cc3ccc(-c4cnc([C@@H]5CCCN5C(=O)[C@@H](NC(=O)OCC)C(C)C)[nH]4)cc3)cc2)[nH]1)C(C)C [Compound 3b, Diethyl ((2S,2′S)-((2S,2′S)-((buta-1,3-diyne-1,4-diylbis(4,1-phenylene))bis(1H-imidazole-5,2-diyl))bis(pyrrolidine-2,1-diyl))bis(3-methyl-1-oxobutane-1,2-diyl))dicarbamate] | >297.44 | – | – | > 100000 | 139 to 141 | 6.47
7 | COC(=O)N[C@H](C(=O)N1CCC[C@H]1c1ncc(-c2ccc(C#CC#Cc3ccc(-c4cnc([C@@H]5CCCN5C(=O)[C@@H](NC(=O)OC)C(C)C)[nH]4)cc3)cc2)[nH]1)C(C)C [Compound 1b, Dimethyl ((2S,2′S)-((2S,2′S)-((buta-1,3-diyne-1,4-diylbis(4,1-phenylene))bis(1H-imidazole-5,2-diyl))bis(pyrrolidine-2,1-diyl))bis(3-methyl-1-oxobutane-1,2-diyl))dicarbamate] | >1113.58 | – | – | > 100000 | – | 7.05
8 | COC(=O)N[C@H](C(=O)N1CCC[C@H]1c1nc(-c2ccc(-c3ccc(-c4c[nH]c([C@@H]5CCCN5C(=O)[C@@H](NC(=O)OC)C(C)C)n4)cc3)cc2)c[nH]1)C(C)C [Daclatasvir, reference compound] | 655,556 | – | – | 17700 | – | 10.57
9 | COC(=O)N[C@H](C(=O)N1CCC[C@H]1c1ncc(-c2cccc(C#CC#Cc3cccc(-c4cnc([C@@H]5CCCN5C(=O)[C@@H](NC(=O)OC)C(C)C)[nH]4)c3)c2)[nH]1)C(C)C [Compound 1a, Dimethyl ((2S,2′S)-((2S,2′S)-((buta-1,3-diyne-1,4-diylbis(3,1-phenylene))bis(1H-imidazole-5,2-diyl))bis(pyrrolidine-2,1-diyl))bis(3-methyl-1-oxobutane-1,2diyl))dicarbamate] | – | 6.78 | – | > 100000 | – | –
10 | CCCCOC(=O)N[C@H](C(=O)N1CCC[C@H]1c1ncc(-c2cccc(C#CC#Cc3cccc(-c4cnc([C@@H]5CCCN5C(=O)[C@@H](NC(=O)OCCCC)C(C)C)[nH]4)c3)c2)[nH]1)C(C)C [Compound 4a, Dibutyl ((2S,2′S)-((2S,2′S)-((buta-1,3-diyne-1,4-diylbis(3,1-phenylene))bis(1H-imidazole-5,2-diyl))bis(pyrrolidine-2,1-diyl))bis(3-methyl-1-oxobutane-1,2-diyl))dicarbamate] | >110.89 | – | – | > 100000 | – | 6.04
11 | COC(=O)N[C@H](C(=O)N1CCC[C@H]1c1ncc(-c2ccc(C#CC#Cc3ccc(-c4cnc([C@@H]5CCCN5C(=O)[C@@H](NC(=O)OC)c5ccccc5)[nH]4)cc3)cc2)[nH]1)c1ccccc1 [Compound 9b, Dimethyl ((1S,1′S)-((2S,2′S)-((buta-1,3-diyne-1,4-diylbis(4,1-phenylene))bis(1H-imidazole-5,2-diyl))bis(pyrrolidine-2,1-diyl))bis(2-oxo-1-phenylethane-2,1-diyl))dicarbamate] | >542.59 | – | – | > 100000 | – | 6.73
12 | CCOC(=O)N[C@@H](CC(C)C)C(=O)N1CCC[C@H]1c1ncc(-c2cccc(C#CC#Cc3cccc(-c4cnc([C@@H]5CCCN5C(=O)[C@H](CC(C)C)NC(=O)OCC)[nH]4)c3)c2)[nH]1 [Compound 7a, Diethyl ((2S,2′S)-((2S,2′S)-((buta-1,3-diyne-1,4-diylbis(3,1-phenylene))bis(1H-imidazole-5,2-diyl))bis(pyrrolidine-2,1-diyl))bis(4-methyl-1-oxopentane-1,2-diyl))dicarbamate] | >1021.55 | 7.01 | 7.01 | > 100000 | – | –

From publication PMC9146377, “Design and Synthesis of Novel Bis-Imidazolyl Phenyl Butadiyne Derivatives as HCV NS5A Inhibitors” (Pharmaceuticals, 2022)
